Counter-ions that a name gives are not always drawn.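 Method: 48-hour compound exposure of cells in 96-well plates, five concentrations, linear interpolation of endpoints. GI50: concentration for 50% inhibition of growth.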 Calls of active or inactive are those of the source. Cut-off read from the data, not from the text of the source: active = GI50 up to about 1.1 µM and inactive = higher.
What was measured:
Assay in all cases: NCI anticancer screen, dose series, 48 h
786-0 = tested on: 786-0
A498 = tested on: A498
CAKI-1 = tested on: CAKI-1
CCRF-CEM = tested on: CCRF-CEM
DU-145 = tested on: DU-145
HCC 2998 = tested on: HCC 2998
HCT-116 = tested on: HCT-116
HL-60 = tested on: HL-60
K562 = tested on: K562
KM12 = tested on: KM12
M14 = tested on: M14
NCI-H226 = tested on: NCI-H226
OVCAR-8 = tested on: OVCAR-8
RXF 393 = tested on: RXF 393
SF-268 = tested on: SF-268
SF-539 = tested on: SF-539
SN12C = tested on: SN12C
SR = tested on: SR
SW-620 = tested on: SW-620
UO-31 = tested on: UO-31

Measured: GI50

CN(C)c1nc(-c2ccccc2)c(C(=O)c2c[nH]c3ccccc23)s1
inactive: 786-0 8.61 µM | A498 9.98 µM | CAKI-1 9.4 µM | CCRF-CEM 5.92 µM | DU-145 34.2 µM | HCC 2998 6.55 µM | HCT-116 3.88 µM | HL-60 3.4 µM | K562 4.07 µM | KM12 4.2 µM | M14 4.59 µM | NCI-H226 > 25.7 µM | OVCAR-8 9.62 µM | RXF 393 14.2 µM | SF-268 9.2 µM | SF-539 10.7 µM | SN12C 18.2 µM | SR 1.54 µM | SW-620 5.24 µM | UO-31 11.2 µM

Cc1c(S(=O)(=O)c2ccccc2)c(N)n(CCN(C)C)c1C
inactive: 786-0 > 100 µM | A498 > 100 µM | CAKI-1 > 100 µM | CCRF-CEM > 100 µM | DU-145 > 100 µM | HCC 2998 75 µM | HCT-116 > 100 µM | HL-60 > 100 µM | K562 > 100 µM | KM12 > 100 µM | M14 > 100 µM | NCI-H226 > 100 µM | OVCAR-8 > 100 µM | RXF 393 > 100 µM | SF-268 > 100 µM | SF-539 28.9 µM | SN12C > 100 µM | SR > 100 µM | SW-620 > 100 µM | UO-31 > 100 µM

CC(CN1c2ccccc2Sc2ccccc21)N(C)C (stereo not given) [PROMETHAZINE HYDROCHLORIDE]
inactive: 786-0 14.8 µM | A498 19.6 µM | CAKI-1 18.5 µM | CCRF-CEM 20.3 µM | DU-145 19.4 µM | HCC 2998 20.1 µM | HCT-116 15.5 µM | HL-60 22.7 µM | K562 17.3 µM | KM12 20.8 µM | M14 17.3 µM | NCI-H226 19.1 µM | OVCAR-8 16.2 µM | RXF 393 20.8 µM | SF-268 17.5 µM | SF-539 19.1 µM | SN12C 15.3 µM | SR 21.8 µM | SW-620 23.6 µM | UO-31 17.9 µM

Nc1ncnc2c1nc(Cl)n2[C@@H]1O[C@@H]2COP(=O)(O)O[C@H]2[C@H]1O [TOCLADESINE]
inactive: 786-0 8.85 µM | A498 67.6 µM | CAKI-1 3.61 µM | CCRF-CEM 3.48 µM | DU-145 12.5 µM | HCC 2998 37.8 µM | HCT-116 3.01 µM | HL-60 3.61 µM | K562 2.82 µM | KM12 75.5 µM | M14 8.02 µM | NCI-H226 6.18 µM | OVCAR-8 5.42 µM | RXF 393 7.35 µM | SF-268 32 µM | SF-539 49 µM | SN12C 12.6 µM | SR 4.7 µM | SW-620 12.1 µM | UO-31 16.4 µM

— ChEMBL document CHEMBL1201862, “PubChem BioAssay data set” (2004)
